According to PubChem BioAssay (NCI):
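GI50 is the concentration that inhibits growth by half. TGI is the concentration that stops growth completely.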

Columns and labels:
Assay in all cases: growth of human tumour cells (NCI), 384-well format
SNB-19 CNS = test system: SNB-19 CNS
HS 578T breast = test system: HS 578T breast
MOLT-4 leukemia = test system: MOLT-4 leukemia
T-47D breast = test system: T-47D breast
M14 melanoma = test system: M14 melanoma
BT-549 breast = test system: BT-549 breast
SK-MEL-5 melanoma = test system: SK-MEL-5 melanoma
IGROV1 ovarian = test system: IGROV1 ovarian
SNB-75 CNS = test system: SNB-75 CNS
HT29 colon = test system: HT29 colon
RXF 393 renal = test system: RXF 393 renal
HOP-62 NSCLC = test system: HOP-62 NSCLC
SK-MEL-28 melanoma = test system: SK-MEL-28 melanoma

Structure (SMILES): C[C@]12CCCN1CC1=NNC(=O)c3cc(F)cc4[nH]c2c1c34
- GI50 (SNB-19 CNS): 35.2 µM
- TGI (SNB-19 CNS): 97.7 µM
- GI50 (HS 578T breast): 13.6 µM
- TGI (HS 578T breast): 30.1 µM
- GI50 (MOLT-4 leukemia): 2.48 µM
- TGI (MOLT-4 leukemia): 10.5 µM
- GI50 (T-47D breast): 31.7 µM
- TGI (T-47D breast): > 86.3 µM
- GI50 (M14 melanoma): 18.3 µM
- TGI (M14 melanoma): 43.4 µM
- GI50 (BT-549 breast): 16.4 µM
- TGI (BT-549 breast): 42.2 µM
- GI50 (SK-MEL-5 melanoma): 19.6 µM
- TGI (SK-MEL-5 melanoma): 36.7 µM
- GI50 (IGROV1 ovarian): 21.7 µM
- TGI (IGROV1 ovarian): > 89.6 µM
- GI50 (SNB-75 CNS): 23.3 µM
- TGI (SNB-75 CNS): > 67.2 µM
- GI50 (HT29 colon): 22.8 µM
- TGI (HT29 colon): 74.7 µM
- GI50 (RXF 393 renal): 12.8 µM
- TGI (RXF 393 renal): 30.9 µM
- GI50 (HOP-62 NSCLC): 10.9 µM
- TGI (HOP-62 NSCLC): 45.6 µM
- GI50 (SK-MEL-28 melanoma): 26.1 µM
- TGI (SK-MEL-28 melanoma): 81.3 µM
